Results from US12391671B2, “Allosteric EGFR inhibitors and methods of use thereof” (Dana-Farber Cancer Institute, Inc., priority 2019, dated 2025).
Structures can show the parent of a compound that is named as a salt. Where two headings read alike, the source gives them in different places.

What was measured:
[1] = molecular target: EGFR L858R/T790M (Homo sapiens (Human), UniProt P00533, L858R/T790M); assay: HTRF-based EGFR biochemical assay (L858R/T790M); settings: 100 μM ATP, enzyme 0.02 nM
How it was run: (§1)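 Mutant EGFR (L858R 0.1 nM, L858R/T790M 0.02 nM) preincubated 30 min with compounds at room temperature in HEPES pH 7.0 buffer with Mg2+/Mn2+, then reacted 20 min with 1 μM biotinylated tyrosine kinase peptide and 100 μM ATP. Phosphorylation read by HTRF (Eu-cryptate anti-phosphotyrosine/streptavidin-XL665, 665/620 nm) after EDTA quench.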

[2] = molecular target: EGFR L858R (Homo sapiens (Human), UniProt P00533, L858R); assay: HTRF-based EGFR biochemical assay (L858R); settings: 100 μM ATP, enzyme 0.1 nM
How it was run: as §1

[3] = tested on: EGFR mutant L858R/T790M Ba/F3 cells; assay: Ba/F3 cell proliferation model (Cell Titer Glo), EGFR L858R/T790M; assay type: cell-based, murine; settings: 72 hours
How it was run: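 Retrovirally transduced Ba/F3 cells exposed 72 h to compound alone or with 1 μg/mL cetuximab, triplicate points, repeated at least three times. Viability by Cell Titer Glo luminescence (ATP); curves fitted by non-linear sigmoidal dose-response regression.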

[4] = tested on: EGFR mutant L858R Ba/F3 cells; assay: Ba/F3 cell proliferation model (Cell Titer Glo), EGFR L858R; assay type: cell-based, murine; settings: 72 hours
Description: Example 26: Ba/F3 Cell Proliferation Models
The EGFR mutant L858R and L858R/T790M Ba/F3 cells have been previously described (Zhou, W., et al. Nature 462, 2009, 1070-1074). All cell lines were maintained in RPM 1640 (Cellgro; Mediatech Inc., Herndon. CA) supplemented with 10% FBS, 100 units/mL penicillin, 100 units/mL streptomycin. The EGFR I941R mutation was introduced via site directed mutagenesis using the Quick Change Site-Directed Mutagenesis kit (Stratagene; La Jolla, CA) according to the manufacturer's instructions. All constructs were confirmed by DNA sequencing. The constructs were shuttled into the retroviral vector JP1540 using the Cre-recombination system (Agilent Technologies, Santa Clara, CA). Ba/F3 cells were then infected with retrovirus per standard protocols, as described previously (Zhou, et al, Nature 2009). Stable clones were obtained by selection in puromycin (2 μg/ml).
Growth and inhibition of growth was assessed by the Cell Titer Glo® assay (Promega, Madison, WI) and was performed according to the manufacturer's instructions. The Cell Titer Glo® assay is a luminescence-based method used to determine the number of viable cells based on quantitation of the ATP present, which is directly proportional to the amount of metabolically active cells present. Ba/F3 cells of different EGFR genotypes were exposed to compounds as a single agent or in combination with 1 μg/mL cetuximab for 72 hours and the number of cells used per experiment was determined empirically as has been previously established (Zhou, et al., Nature 2009). All experimental points were set up in triplicates in 384-well plates and all experiments were repeated at least three times. […] The curves were fitted using a non-linear regression model with a sigmoidal dose response.

[5] = in combination with 1 μg/mL cetuximab, read-out: Cell IC50 BaF3 EGFR L858R/T790M (+cetux.)
[6] = in combination with 1 μg/mL cetuximab, read-out: Cell IC50 BaF3 EGFR L858R (+cetux.)
[7] = Mus musculus, BaF3, single agent, read-out: Cell IC50 BaF3 EGFR L858R/T790M
[8] = Mus musculus, BaF3, single agent, read-out: Cell IC50 BaF3 EGFR L858R

EGFR L858R/T790M, sequence (P00533 25-1210 T790M/L858R): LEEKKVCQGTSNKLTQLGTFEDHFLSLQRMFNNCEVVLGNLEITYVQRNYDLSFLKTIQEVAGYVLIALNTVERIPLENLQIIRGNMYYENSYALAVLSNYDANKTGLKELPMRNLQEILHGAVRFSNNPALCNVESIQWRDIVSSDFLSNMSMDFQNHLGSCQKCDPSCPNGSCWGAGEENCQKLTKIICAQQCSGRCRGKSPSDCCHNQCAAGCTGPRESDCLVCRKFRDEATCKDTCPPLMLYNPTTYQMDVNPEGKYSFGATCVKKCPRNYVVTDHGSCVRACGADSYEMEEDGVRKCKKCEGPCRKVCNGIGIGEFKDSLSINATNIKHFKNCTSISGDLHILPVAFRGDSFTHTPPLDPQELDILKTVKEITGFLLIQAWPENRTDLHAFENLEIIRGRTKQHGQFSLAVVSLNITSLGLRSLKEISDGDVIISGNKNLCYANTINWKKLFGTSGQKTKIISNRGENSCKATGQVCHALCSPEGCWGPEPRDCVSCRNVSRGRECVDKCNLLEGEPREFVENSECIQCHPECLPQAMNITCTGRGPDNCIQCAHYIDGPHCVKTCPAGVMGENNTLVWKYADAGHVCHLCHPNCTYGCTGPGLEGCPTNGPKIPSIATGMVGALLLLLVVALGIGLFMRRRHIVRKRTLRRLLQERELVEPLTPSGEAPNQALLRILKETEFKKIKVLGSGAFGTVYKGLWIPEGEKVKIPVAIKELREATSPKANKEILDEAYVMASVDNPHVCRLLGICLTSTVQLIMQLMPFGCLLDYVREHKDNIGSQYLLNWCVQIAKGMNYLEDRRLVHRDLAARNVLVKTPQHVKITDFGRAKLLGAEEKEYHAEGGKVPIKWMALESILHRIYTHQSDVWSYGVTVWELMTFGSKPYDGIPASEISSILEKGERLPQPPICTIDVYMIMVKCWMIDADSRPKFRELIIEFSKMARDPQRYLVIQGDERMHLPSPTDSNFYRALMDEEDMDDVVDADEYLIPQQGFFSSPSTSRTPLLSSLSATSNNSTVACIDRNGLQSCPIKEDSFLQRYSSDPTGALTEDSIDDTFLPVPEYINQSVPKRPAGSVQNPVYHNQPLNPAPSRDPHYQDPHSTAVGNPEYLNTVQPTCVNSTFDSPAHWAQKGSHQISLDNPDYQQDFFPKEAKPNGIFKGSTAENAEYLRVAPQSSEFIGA
EGFR L858R, sequence (P00533 25-1210 L858R): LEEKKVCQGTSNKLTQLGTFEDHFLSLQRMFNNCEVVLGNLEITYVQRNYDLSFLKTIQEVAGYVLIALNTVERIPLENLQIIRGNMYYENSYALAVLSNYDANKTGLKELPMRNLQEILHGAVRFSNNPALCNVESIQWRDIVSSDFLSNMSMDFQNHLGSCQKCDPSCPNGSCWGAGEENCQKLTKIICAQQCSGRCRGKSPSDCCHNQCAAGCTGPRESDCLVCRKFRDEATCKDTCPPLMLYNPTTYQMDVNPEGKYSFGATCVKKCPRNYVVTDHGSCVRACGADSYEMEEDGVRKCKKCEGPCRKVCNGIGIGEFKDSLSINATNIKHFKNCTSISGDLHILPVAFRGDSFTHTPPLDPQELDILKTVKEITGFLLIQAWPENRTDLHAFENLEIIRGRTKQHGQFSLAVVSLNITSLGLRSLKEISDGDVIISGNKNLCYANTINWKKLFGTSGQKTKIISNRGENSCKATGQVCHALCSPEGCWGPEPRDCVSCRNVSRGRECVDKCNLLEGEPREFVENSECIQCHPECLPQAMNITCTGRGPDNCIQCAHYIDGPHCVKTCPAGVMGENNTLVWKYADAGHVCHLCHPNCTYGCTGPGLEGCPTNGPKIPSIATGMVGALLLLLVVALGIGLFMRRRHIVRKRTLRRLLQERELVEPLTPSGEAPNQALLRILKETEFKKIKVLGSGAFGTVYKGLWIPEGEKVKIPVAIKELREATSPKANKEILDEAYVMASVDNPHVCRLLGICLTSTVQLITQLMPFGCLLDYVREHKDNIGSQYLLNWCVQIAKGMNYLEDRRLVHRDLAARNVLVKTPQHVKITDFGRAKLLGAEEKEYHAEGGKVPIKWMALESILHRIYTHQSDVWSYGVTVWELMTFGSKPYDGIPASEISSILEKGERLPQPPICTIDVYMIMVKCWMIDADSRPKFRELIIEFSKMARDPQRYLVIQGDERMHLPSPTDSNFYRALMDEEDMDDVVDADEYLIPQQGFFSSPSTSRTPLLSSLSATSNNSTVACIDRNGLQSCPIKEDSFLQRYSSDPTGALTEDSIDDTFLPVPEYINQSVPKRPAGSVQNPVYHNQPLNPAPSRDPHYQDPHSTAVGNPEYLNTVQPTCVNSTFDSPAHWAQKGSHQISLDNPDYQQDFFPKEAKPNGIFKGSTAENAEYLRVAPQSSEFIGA

Row | SMILES | IC50 [1] | IC50 [2] | IC50 [3, 5] | IC50 [3, 7] | IC50 [4, 8] | IC50 ([3]; single agent, read-out: Cell IC50 BaF3 EGFR L858R/T790M) | IC50 [4, 6] | IC50 ([4]; single agent, read-out: Cell IC50 BaF3 EGFR L858R)
1 | CN1CCC(c2ccc(-c3ccc4c(c3)C(=O)N([C@@H](c3nc5ccccc5[nH]3)c3cc(F)ccc3O)C4)cc2)CC1 [Compound 022, 2-[(R)-1H-benzimidazol-2-yl-(5-fluoro-2-hydroxy-phenyl)methyl]-6-[4-(1-methyl-4-piperidyl)phenyl]isoindolin-1-one] | 0.1 nM | 0.3 nM | 5 nM |  |  | 380 nM | 40 nM | 640 nM
2 | Cc1c[nH]c(C(c2cccc(F)c2)N2Cc3ccc(-c4ccc(C5CCN(C)CC5)cc4)cc3C2=O)n1 (stereo not drawn) [Compound 086, 2-[(3-fluorophenyl)-(4-methyl-1H-imidazol-2-yl)methyl]-6-[4-(1-methyl-4-piperidyl)phenyl]isoindolin-1-one] | 25 nM | > 100 nM |  | 3220 nM | 3640 nM |  |  | 
3 | CN1CCC(c2ccc(-c3cc(F)c4c(=O)n(C(c5ccccc5)c5nc6ccccc6[nH]5)ccc4c3)cc2)CC1 (stereo not drawn) [Compound 064, 2-[1H-benzimidazol-2-yl(phenyl)methyl]-8-fluoro-6-[4-(1-methyl-4-piperidyl)phenyl]-isoquinolin-1-one; dihydrochloride] | 20 nM | 31 nM | 20 nM | 220 nM | 670 nM |  |  | 
4 | CN1CCC(c2ccc(-c3ccc4ccn(C(c5ccccc5)c5nc6ccccc6[nH]5)c(=O)c4c3F)cc2)CC1 (stereo not drawn) [Compound 071] | 20 nM | > 100 nM | 330 nM | 1380 nM | 1210 nM |  |  | 

Continued by falling IC50 [1], values first:

Row | IC50 [1] | IC50 [2] | IC50 [3, 5] | IC50 [3, 7] | IC50 [4, 8] | SMILES | IC50 ([3]; single agent, read-out: Cell IC50 BaF3 EGFR L858R/T790M) | IC50 [4, 6] | IC50 ([4]; single agent, read-out: Cell IC50 BaF3 EGFR L858R)
5 | 2 nM | 9 nM | 50 nM | 890 nM | 1050 nM | CN1CCC(c2ccc(-c3ccc4ccn(C(c5nc6ccccc6[nH]5)c5cc(F)ccc5O)c(=O)c4c3)cc2)CC1 (stereo not drawn) [Compound 063, 2-[1H-benzimidazol-2-yl-(5-fluoro-2-hydroxy-phenyl)methyl]-7-[4-(1-methyl-4-piperidyl)phenyl]isoquinolin-1-one] |  |  | 
6 | 2 nM | 2 nM | 30 nM | 140 nM | 90 nM | CN1CCC(c2ccc(-c3ccc4ncn(C(c5nc6ccccc6[nH]5)c5cc(F)ccc5O)c(=O)c4c3C(F)(F)F)cc2)CC1 (stereo not drawn) [Compound 076, 3-[1H-benzimidazol-2-yl-(5-fluoro-2-hydroxy-phenyl)methyl]-6-[4-(1-methyl-4-piperidyl)phenyl]-5-(trifluoromethyl)quinazolin-4-one; dihydrochloride] |  |  | 
7 | 0.6 nM | 3 nM | 10 nM | 210 nM | 500 nM | CN1CCC(c2ccc(-c3ccc4c(c3F)C(=O)N(C(c3nc5ccccc5[nH]3)c3cc(F)ccc3O)C4)cc2F)CC1 (stereo not drawn) [Compound 080, 2-[1H-benzimidazol-2-yl-(5-fluoro-2-hydroxy-phenyl)methyl]-7-fluoro-6-[3-fluoro-4-(1-methyl-4-piperidyl)phenyl]isoindolin-1-one; dihydrochloride] |  |  | 
8 | 0.5 nM | 2 nM |  | 30 nM | 130 nM | CN1CCC(c2ccc(-c3cc(F)c4c(=O)n([C@@H](c5nc6ccccc6[nH]5)c5cc(F)ccc5O)ccc4c3)cc2)CC1 (single isomer, unassigned) [Compound 065] |  |  | 
9 | 0.3 nM | 2 nM | 10 nM | 710 nM | 810 nM | CN1CCC(c2ccc(-c3ccc4c(c3)C(=O)N(C(c3nc5cccnc5[nH]3)c3cc(F)ccc3O)C4)cc2)CC1 (stereo not drawn) [Compound 014, 2-[(5-Fluoro-2-hydroxy-phenyl)-(3H-imidazo[4,5-b]pyridin-2-yl)methyl]-6-[4-(1-methyl-4-piperidyl)phenyl]isoindolin-1-one; hydrochloride] |  | 60 nM | 
